Measured values reported in article PMC6657668, “Porcine Beta-Defensin 2 Provides Protection Against Bacterial Infection by a Direct Bactericidal Activity and Alleviates Inflammation via Interference With the TLR4/NF-κB Pathway” (Frontiers in Immunology, 2019).
Where a SMILES comes first, the peptide text is derived from it.

Tests used:
S. Typhimurium [1] = assay: Serum cytokine levels of mice infected with S. Typhimurium (ELISA); format: in vivo, Salmonella Typhimurium 14028 (in mice); conditions: 24 h, n = 6
Experimental: At 24 h post-infection, blood samples of the mice were collected to detect cytokines IL-6 (# EMC004.96), tumor necrosis factor-α (TNF-α, # EMC102a.96), IL-1β (# EMC001b.96), and IL-12 (# EMC006.96) using ELISA kits (Neo-bioscience Technology Company, Shenzhen China). For cytokine detections in the WT mice with or without treatment of PBD-2, the blood samples were collected from the WT mice orally administered with solely 2.5 × 10^8 CFU of S. Typhimurium (n = 6) or together with PBD-2 at 5 mg/kg body weight (n = 6).

S. Typhimurium [2] = assay: Bactericidal activity assay (colony counting); conditions: 5000 CFU, 1 h, 37°C, n = 6
Experimental: S. Typhimurium cells were cultured to mid-log phase (OD600nm = 0.7) in TSB. The cultures were centrifuged for 10 min at 1,000 × g, and the cell pellets were diluted in assay medium (10 mM phosphate, pH 7.0, with 1/100 TSB). The antimicrobial activities of PBD-2, TG serum and tissue homogenates were determined by colony counting assay. The mice serum, caecum, colon, or duodenum homogenates were heat inactivated at 56°C for 20 min to exclude the possible effect of complement in tissues. As a control, PBD-2 solution in PBS (50 μg/ml) was also heat-treated at 56°C for 20 min. Afterwards, 5000 CFUs of S. Typhimurium were mixed with 100 μl of each sample in a centrifuge tube at 37°C for 1 h. After incubation, 10 serial dilutions from 10 to 1,000-fold in TSB were conducted, and the diluted bacterial cultures were transferred onto TSA plates and incubated at 37°C for 24 h. The numbers of bacterial CFUs were recorded.

[3] = PBD-2 expressed in TG mice, oral 2.5 × 10^8 CFU S. Typhimurium, vs WT
[4] = synthetic PBD-2 5 mg/kg orally with 2.5 × 10^8 CFU S. Typhimurium, WT mice, vs infection alone

SMILES: CC[C@H](C)[C@H](NC(=O)[C@@H]1CSSC[C@@H]2NC(=O)[C@@H]3CCCN3C(=O)[C@H](CO)NC(=O)[C@H](Cc3ccccc3)NC(=O)[C@H](CC(N)=O)NC(=O)[C@@H]3CSSC[C@H](NC(=O)[C@H]([C@@H](C)O)NC(=O)CNC(=O)[C@H](CCC(=O)O)NC(=O)[C@H]([C@@H](C)CC)NC(=O)[C@H](CCCNC(=N)N)NC(=O)[C@H](CC(N)=O)NC(=O)[C@H](Cc4ccccc4)NC(=O)[C@H](CC(C)C)NC(=O)[C@@H]4CCCN4C2=O)C(=O)N[C@@H](Cc2ccc(O)cc2)C(=O)N[C@@H](CO)C(=O)NCC(=O)N[C@@H](CCCCN)C(=O)N[C@@H](C)C(=O)N[C@@H](CCCCN)C(=O)N[C@@H](CSSC[C@H](NC(=O)[C@@H](NC(=O)[C@H](Cc2ccc(O)cc2)NC(=O)[C@H](Cc2c[nH]cn2)NC(=O)[C@@H](N)CC(=O)O)[C@@H](C)CC)C(=O)N[C@@H](C)C(=O)N[C@@H](CCCCN)C(=O)N[C@@H](CCCCN)C(=O)NCC(=O)NCC(=O)N[C@@H]([C@@H](C)O)C(=O)N3)C(=O)N1)C(=O)N[C@@H](CCCNC(=N)N)C(=O)O [PBD-2, Porcine beta-defensin 2] (HELM PEPTIDE1{D.H.Y.I.C.A.K.K.G.G.T.C.N.F.S.P.C.P.L.F.N.R.I.E.G.T.C.Y.S.G.K.A.K.C.C.I.R}$PEPTIDE1,PEPTIDE1,5:R3-34:R3|PEPTIDE1,PEPTIDE1,12:R3-27:R3|PEPTIDE1,PEPTIDE1,17:R3-35:R3$$$V2.0; N-terminus and C-terminus assumed)
- level of IL-1β in serum (S. Typhimurium [1]; [3]): significantly lower than those of the WT mice (p < 0.05)
- level of IL-6 in serum (S. Typhimurium [1]; [3]): significantly lower than those of the WT mice (p < 0.05)
- level of IL-12 in serum (S. Typhimurium [1]; [3]): significantly lower than those of the WT mice (p < 0.05)
- level of TNF-α in serum (S. Typhimurium [1]; [3]): significantly lower than those of the WT mice (p < 0.05)
- level of IL-1β in serum (S. Typhimurium [1]; [4]): significantly lower levels of proinflammatory cytokines than the mice infected with S. Typhimurium alone did (p < 0.05)
- level of IL-6 in serum (S. Typhimurium [1]; [4]): significantly lower levels of proinflammatory cytokines than the mice infected with S. Typhimurium alone did (p < 0.05)
- level of IL-12 in serum (S. Typhimurium [1]; [4]): significantly lower levels of proinflammatory cytokines than the mice infected with S. Typhimurium alone did (p < 0.05)
- level of TNF-α in serum (S. Typhimurium [1]; [4]): significantly lower levels of proinflammatory cytokines than the mice infected with S. Typhimurium alone did (p < 0.05)
- number of survived bacteria, caecum homogenate (S. Typhimurium [2]; heat-inactivated (56°C, 20 min) caecum homogenate of PBD-2 TG mice vs WT): the number of the survived bacteria in the serum and tissue homogenates of the WT mice was significantly higher than that in the serum and tissue homogenates of the TG mice (p < 0.05)
- number of survived bacteria, colon homogenate (S. Typhimurium [2]; heat-inactivated (56°C, 20 min) colon homogenate of PBD-2 TG mice vs WT): the number of the survived bacteria in the serum and tissue homogenates of the WT mice was significantly higher than that in the serum and tissue homogenates of the TG mice (p < 0.05)
- number of survived bacteria, serum (S. Typhimurium [2]; heat-inactivated (56°C, 20 min) serum of PBD-2 TG mice vs WT): the number of the survived bacteria in the serum and tissue homogenates of the WT mice was significantly higher than that in the serum and tissue homogenates of the TG mice (p < 0.05)
